Common to all, as to type: biochemical
The target of experiment [1] is T1, SIK3 (Homo sapiens, UniProt Q9Y2K2).
T1 construct: purchased Life Technologies
As to the kind of experiment: SIK3 kinase assay, IMAP fluorescence polarization. As to conditions: 50 or 100 μM ATP, average. The method, boiled down: (§1)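 Kinases (0.6–13 nM) incubated 60 min at room temperature with 100 nM FAM-Abltide, FAM-Srctide or FAM-HDAC peptide and 50 or 100 μM ATP in 20 mM Tris pH 7.2, 4 mM MgCl2, 0.2% BSA, 2 mM DTT. IMAP binding reagent (85:15 buffer A:B; 30:70 for Src) stopped reactions; fluorescence polarization read; compounds tested 0.00005–1 μM.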

Experiment [2] deals with T2, EPHA2 (Homo sapiens, UniProt P29317).
T2 construct: purchased Life Technologies
T2 sequence (P29317 24-976): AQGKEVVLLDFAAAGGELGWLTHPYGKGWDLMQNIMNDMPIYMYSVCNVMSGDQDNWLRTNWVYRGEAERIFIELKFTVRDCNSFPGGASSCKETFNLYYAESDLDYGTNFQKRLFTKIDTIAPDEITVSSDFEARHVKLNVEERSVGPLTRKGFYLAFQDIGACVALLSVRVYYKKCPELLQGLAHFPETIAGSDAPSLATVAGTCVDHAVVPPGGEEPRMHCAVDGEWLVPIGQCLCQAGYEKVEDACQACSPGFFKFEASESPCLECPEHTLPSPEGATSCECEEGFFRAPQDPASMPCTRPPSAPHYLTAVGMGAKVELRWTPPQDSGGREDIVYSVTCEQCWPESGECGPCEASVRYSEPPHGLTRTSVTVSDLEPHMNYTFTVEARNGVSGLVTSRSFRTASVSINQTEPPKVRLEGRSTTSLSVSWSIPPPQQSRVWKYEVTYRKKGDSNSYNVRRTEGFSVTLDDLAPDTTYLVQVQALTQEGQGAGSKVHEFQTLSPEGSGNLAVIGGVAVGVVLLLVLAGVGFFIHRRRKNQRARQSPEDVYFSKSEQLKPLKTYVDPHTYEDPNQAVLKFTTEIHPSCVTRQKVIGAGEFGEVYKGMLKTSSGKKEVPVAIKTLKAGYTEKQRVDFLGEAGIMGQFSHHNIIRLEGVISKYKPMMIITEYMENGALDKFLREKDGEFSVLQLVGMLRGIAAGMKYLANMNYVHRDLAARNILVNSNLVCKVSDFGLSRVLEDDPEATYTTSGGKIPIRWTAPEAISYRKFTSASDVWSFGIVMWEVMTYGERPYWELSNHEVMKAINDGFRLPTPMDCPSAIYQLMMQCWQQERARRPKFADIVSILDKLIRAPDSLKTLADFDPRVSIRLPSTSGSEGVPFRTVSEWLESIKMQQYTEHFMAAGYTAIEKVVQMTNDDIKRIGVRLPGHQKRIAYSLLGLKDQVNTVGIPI
Description: EPHA2 kinase assay, IMAP fluorescence polarization. As to conditions: 50 or 100 μM ATP, Tris pH 8.5, average.

Experiment [3] concerns the target T3, Abl (Homo sapiens, UniProt P00519).
T3 construct: purchased Life Technologies
As to the kind of experiment: Abl kinase assay, IMAP fluorescence polarization. As to conditions: 50 or 100 μM ATP, average. The method, boiled down:
as §1

Experiment [4] has as its target T4, SIK1 (Homo sapiens, UniProt P57059).
T4 construct: purchased Life Technologies
As to the kind of experiment: SIK1 kinase assay, IMAP fluorescence polarization. As to conditions: 50 or 100 μM ATP, average. The method, boiled down: as §1

In experiment [5] the target is T5, Src (Homo sapiens, UniProt P12931).
T5 construct: purchased Life Technologies
T5 sequence (P12931 whole entry): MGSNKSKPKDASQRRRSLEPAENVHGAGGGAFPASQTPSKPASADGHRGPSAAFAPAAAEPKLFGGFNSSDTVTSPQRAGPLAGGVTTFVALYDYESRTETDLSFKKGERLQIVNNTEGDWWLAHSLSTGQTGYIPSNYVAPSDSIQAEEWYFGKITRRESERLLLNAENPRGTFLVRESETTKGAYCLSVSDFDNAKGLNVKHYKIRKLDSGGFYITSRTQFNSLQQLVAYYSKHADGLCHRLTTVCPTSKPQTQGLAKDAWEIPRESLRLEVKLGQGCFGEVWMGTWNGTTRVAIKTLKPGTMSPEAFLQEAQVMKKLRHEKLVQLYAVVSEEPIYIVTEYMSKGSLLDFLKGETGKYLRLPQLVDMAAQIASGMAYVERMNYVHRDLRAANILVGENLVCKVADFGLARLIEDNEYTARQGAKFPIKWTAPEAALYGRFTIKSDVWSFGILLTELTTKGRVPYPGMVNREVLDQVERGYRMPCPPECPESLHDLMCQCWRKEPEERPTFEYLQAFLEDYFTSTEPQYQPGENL
Description: Src kinase assay, IMAP fluorescence polarization. Conditions: 50 or 100 μM ATP, average. In a few lines: as §1

In experiment [6] the target is T6, SIK2 (Homo sapiens, UniProt Q9H0K1).
T6 construct: purchased Life Technologies
T6 sequence (Q9H0K1 whole entry): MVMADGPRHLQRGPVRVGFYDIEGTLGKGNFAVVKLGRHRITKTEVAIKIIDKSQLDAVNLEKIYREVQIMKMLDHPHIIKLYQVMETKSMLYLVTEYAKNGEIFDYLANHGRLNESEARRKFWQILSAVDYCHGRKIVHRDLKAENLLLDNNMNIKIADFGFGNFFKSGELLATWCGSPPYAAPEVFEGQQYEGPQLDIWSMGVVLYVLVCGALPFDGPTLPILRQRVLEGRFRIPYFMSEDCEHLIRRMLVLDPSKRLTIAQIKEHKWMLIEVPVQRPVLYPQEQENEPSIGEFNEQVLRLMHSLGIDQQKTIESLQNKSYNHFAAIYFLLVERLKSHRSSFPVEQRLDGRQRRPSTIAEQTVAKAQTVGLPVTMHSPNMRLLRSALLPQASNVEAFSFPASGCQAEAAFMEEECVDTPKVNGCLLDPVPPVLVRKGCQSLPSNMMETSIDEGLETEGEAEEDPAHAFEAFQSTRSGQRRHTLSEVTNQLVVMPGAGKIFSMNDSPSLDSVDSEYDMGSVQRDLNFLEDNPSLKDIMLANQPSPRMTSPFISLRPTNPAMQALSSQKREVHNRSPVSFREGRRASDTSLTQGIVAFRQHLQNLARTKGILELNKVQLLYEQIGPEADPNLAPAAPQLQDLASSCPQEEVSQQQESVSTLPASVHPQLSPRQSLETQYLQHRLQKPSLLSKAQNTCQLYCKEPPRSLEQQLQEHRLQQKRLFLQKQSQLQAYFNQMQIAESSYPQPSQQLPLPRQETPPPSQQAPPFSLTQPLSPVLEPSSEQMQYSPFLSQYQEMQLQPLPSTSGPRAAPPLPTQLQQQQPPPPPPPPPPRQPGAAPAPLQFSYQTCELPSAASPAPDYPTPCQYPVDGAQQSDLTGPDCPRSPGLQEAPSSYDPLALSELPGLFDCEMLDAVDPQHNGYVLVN
Description: SIK2 kinase assay, IMAP fluorescence polarization. Conditions: 50 or 100 μM ATP, average. In a few lines: as §1

T3 sequence (P00519 whole entry): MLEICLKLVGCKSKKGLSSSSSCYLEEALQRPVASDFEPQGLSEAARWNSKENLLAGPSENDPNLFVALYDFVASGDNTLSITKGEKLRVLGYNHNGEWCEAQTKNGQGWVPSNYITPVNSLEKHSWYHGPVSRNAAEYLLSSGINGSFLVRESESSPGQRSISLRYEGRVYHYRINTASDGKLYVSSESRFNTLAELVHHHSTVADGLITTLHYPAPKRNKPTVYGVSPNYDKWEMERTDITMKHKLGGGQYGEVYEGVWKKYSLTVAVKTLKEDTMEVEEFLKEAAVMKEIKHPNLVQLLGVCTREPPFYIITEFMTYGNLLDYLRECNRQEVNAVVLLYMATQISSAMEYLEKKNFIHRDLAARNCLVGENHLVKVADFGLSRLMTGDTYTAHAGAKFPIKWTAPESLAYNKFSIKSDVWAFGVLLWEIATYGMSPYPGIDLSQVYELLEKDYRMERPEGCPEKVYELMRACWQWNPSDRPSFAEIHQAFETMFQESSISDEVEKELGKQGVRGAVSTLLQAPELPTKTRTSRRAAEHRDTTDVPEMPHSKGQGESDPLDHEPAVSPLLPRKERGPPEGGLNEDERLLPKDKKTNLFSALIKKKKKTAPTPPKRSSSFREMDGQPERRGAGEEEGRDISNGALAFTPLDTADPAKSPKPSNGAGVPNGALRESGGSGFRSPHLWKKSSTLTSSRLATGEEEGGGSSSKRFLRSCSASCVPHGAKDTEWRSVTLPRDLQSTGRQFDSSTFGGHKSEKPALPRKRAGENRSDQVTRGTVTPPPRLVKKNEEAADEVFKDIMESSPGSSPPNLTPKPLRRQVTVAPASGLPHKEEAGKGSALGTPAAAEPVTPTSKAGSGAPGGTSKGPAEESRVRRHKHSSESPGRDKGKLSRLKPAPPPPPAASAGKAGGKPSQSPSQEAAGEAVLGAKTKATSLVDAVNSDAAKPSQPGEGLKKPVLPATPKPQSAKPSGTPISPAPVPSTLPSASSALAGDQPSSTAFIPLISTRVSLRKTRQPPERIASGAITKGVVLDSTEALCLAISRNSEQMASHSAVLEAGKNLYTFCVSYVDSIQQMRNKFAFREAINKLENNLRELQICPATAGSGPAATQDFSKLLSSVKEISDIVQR
T1 sequence (Q9Y2K2 whole entry): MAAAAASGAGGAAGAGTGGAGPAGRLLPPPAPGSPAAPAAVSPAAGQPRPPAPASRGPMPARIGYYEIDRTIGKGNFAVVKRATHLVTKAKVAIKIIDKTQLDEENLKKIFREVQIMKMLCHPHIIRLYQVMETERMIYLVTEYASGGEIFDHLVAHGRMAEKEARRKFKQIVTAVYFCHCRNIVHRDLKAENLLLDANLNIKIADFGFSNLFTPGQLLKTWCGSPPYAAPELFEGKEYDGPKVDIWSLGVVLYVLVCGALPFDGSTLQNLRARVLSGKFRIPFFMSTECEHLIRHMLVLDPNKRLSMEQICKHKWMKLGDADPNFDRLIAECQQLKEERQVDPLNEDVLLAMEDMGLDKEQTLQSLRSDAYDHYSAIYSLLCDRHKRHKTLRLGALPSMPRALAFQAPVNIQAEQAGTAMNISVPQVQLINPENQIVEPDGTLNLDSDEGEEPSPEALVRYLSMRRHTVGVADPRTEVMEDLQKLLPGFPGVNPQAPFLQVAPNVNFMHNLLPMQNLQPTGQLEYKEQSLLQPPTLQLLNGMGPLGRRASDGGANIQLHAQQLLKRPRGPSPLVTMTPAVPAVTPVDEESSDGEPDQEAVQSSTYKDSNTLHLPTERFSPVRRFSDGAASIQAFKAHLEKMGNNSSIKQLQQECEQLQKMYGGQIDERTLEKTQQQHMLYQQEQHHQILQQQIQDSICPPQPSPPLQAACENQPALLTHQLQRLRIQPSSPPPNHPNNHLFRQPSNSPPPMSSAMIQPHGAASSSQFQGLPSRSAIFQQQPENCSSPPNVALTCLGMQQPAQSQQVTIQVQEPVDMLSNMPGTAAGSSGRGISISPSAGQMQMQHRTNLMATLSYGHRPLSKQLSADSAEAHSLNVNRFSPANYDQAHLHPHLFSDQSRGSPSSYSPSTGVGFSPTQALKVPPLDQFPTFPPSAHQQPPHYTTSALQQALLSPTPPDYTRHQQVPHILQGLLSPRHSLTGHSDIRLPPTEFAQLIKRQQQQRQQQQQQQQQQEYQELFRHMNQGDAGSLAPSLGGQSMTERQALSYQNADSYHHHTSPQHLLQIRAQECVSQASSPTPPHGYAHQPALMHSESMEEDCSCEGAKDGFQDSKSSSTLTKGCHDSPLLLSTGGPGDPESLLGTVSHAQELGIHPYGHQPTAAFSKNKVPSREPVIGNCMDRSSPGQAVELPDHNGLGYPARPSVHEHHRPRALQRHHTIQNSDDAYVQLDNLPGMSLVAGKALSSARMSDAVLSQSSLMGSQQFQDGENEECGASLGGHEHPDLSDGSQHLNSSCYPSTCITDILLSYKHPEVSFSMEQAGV

Regarding `Cc1cccc(F)c1-c1cc(NC2CCNCC2)c2ccncc2c1` [Example 49, 7-(2-Fluoro-6-methyl-phenyl)-N-(4-piperidyl)isoquinolin-5-amine], the Ki was 0.778 nM in experiment [1]; 175 nM in experiment [2]; greater than 1000 nM in experiment [3]; 0.496 nM in experiment [4]; 219 nM in experiment [5]; 0.116 nM in experiment [6].
Regarding `Cc1cccc(Cl)c1-c1cc(NC2CCNCC2)c2nc(N)ncc2c1` [Example 137, 6-(2-chloro-6-methyl-phenyl)-N8-(4-piperidyl)quinazoline-2,8-diamine], the Ki turned out to be 0.51 nM in experiment [1]; 9.22 nM in experiment [2]; 22.5 nM in experiment [3]; 0.296 nM in experiment [4]; 18.7 nM in experiment [5]; 0.0693 nM in experiment [6].
Regarding `Cc1cccc(F)c1-c1cc(NC2CNC2)c2ccncc2c1` [Example 51, N-(azetidin-3-yl)-7-(2-fluoro-6-methyl-phenyl)isoquinolin-5-amine], the Ki in experiment [1] came out at 3.16 nM; in experiment [2], 242 nM; in experiment [3], 24.9 nM; in experiment [4], 2.81 nM; in experiment [5], 220 nM; in experiment [6], 0.532 nM.
In the case of `Cc1cccc(F)c1-c1cc(NC2CCN(C)CC2)c2cc(N)ncc2n1` [Example 121, 2-(2-Fluoro-6-methyl-phenyl)-N4-(1-methyl-4-piperidyl)-1,7-naphthyridine-4,6-diamine], the Ki was 488 nM in experiment [1]; 2650 nM in experiment [2]; greater than 10000 nM in experiment [3]; 178 nM in experiment [4]; greater than 10000 nM in experiment [5]; 46 nM in experiment [6].
Regarding `Cc1cccc(F)c1-c1cc(C(=O)NC2CCNC2)c2cc(N)ncc2c1` (stereo not drawn) [Example 53, 3-amino-7-(2-fluoro-6-methyl-phenyl)-N-pyrrolidin-3-yl-isoquinoline-5-carboxamide], the Ki in experiment [1] is greater than 100000 nM; in experiment [2] it was greater than 100000 nM; in experiment [3], 5530 nM; in experiment [4], 12900 nM; in experiment [5] it was greater than 100000 nM; in experiment [6], 2770 nM.
As to `Cc1cccc(F)c1-c1cc(NC[C@H]2CCN(C)C2)c2cc(N)ncc2c1` [Example 75, 7-(2-fluoro-6-methyl-phenyl)-N5-[[(3R)-1-methylpyrrolidin-3-yl]methyl] isoquinoline-3,5-diamine], the Ki came out at 2 nM in experiment [1]; 120 nM in experiment [2]; 10.3 nM in experiment [3]; 0.618 nM in experiment [4]; 45.2 nM in experiment [5]; 0.19 nM in experiment [6].
As for `Cc1cccc(Cl)c1-c1cc(NC2CCN(C)CC2)c2ccncc2c1` [Example 66, 7-(2-chloro-6-methyl-phenyl)-N-(1-methyl-4-piperidyl)isoquinolin-5-amine], the Ki turned out to be 1.15 nM in experiment [1]; 54.9 nM in experiment [2]; 58.7 nM in experiment [3]; 0.528 nM in experiment [4]; 105 nM in experiment [5]; 0.646 nM in experiment [6].
Turning to `Cc1cccc(F)c1-c1cc(NC2CN(C)C2)c2ccncc2c1` [Example 65, 7-(2-Fluoro-6-methyl-phenyl)-N-(1-methylazetidin-3-yl)isoquinolin-5-amine], the inhibition constant (Ki) was 4.57 nM in experiment [1]; 264 nM in experiment [2]; 35.9 nM in experiment [3]; 3.73 nM in experiment [4]; 285 nM in experiment [5]; 0.716 nM in experiment [6].
In the case of `Cc1cccc(F)c1-c1cc(NC2CCNCC2)c2cc(N)ncc2c1F` [Example 120, 8-Fluoro-7-(2-fluoro-6-methyl-phenyl)-N5-(4-piperidyl)isoquinoline-3,5-diamine], the inhibition constant (Ki) is 22.1 nM in experiment [1]; greater than 1000 nM in experiment [2]; greater than 1000 nM in experiment [3]; 3.55 nM in experiment [4]; greater than 1000 nM in experiment [5]; 2.43 nM in experiment [6].
For the molecule `Cc1cccc(Cl)c1-c1cc(NC2CN(C)C2)c2cc(N)ncc2c1` [Example 63, 7-(2-chloro-6-methyl-phenyl)-N5-(1-methylazetidin-3-yl)isoquinoline-3,5-diamine], the Ki was 10.1 nM in experiment [1]; 220 nM in experiment [2]; 104 nM in experiment [3]; 2.01 nM in experiment [4]; 151 nM in experiment [5]; 0.998 nM in experiment [6].
Turning to `CN[C@@H]1CCCN(c2cc(-c3c(C)cccc3F)cc3cnc(N)cc23)C1` [Example 19, 7-(2-fluoro-6-methyl-phenyl)-5-[(3R)-3-(methylamino)-1-piperidyl]isoquinolin-3-amine], the Ki in experiment [1] is 4.45 nM; in experiment [2], greater than 1000 nM; in experiment [3], 24.6 nM; in experiment [4], 0.476 nM; in experiment [5], 306 nM; in experiment [6], 0.113 nM.

The values are drawn from patent publication US12637428B2, “Isoquinoline derivatives as SIK2 inhibitors” (Cancer Research Technology Limited, priority 2019, dated 2026).
